According to ChEMBL document CHEMBL1201862, “PubChem BioAssay data set” (2004):
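Growth conditions: 96-well plates. Treatment: test compound, 48 hours, 5 concentrations. Analysis: linear interpolation between bracketing concentrations; unreached endpoints set to highest concentration. The concentration for 50% growth inhibition is given as GI50.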 Calls of active or inactive are those of the source. Cut-off read from the data, not from the text of the source: active = GI50 up to about 1.1 µM and inactive = higher.

Legend:
Test in all cases: NCI tumour cell line growth inhibition, 48 h
CAKI-1 = tested on: CAKI-1
SF-268 = tested on: SF-268
K562 = tested on: K562
SF-295 = tested on: SF-295
PC-3 = tested on: PC-3
NCI-H23 = tested on: NCI-H23
MDA-MB-435 = tested on: MDA-MB-435
NCI/ADR-RES = tested on: NCI/ADR-RES
SN12C = tested on: SN12C
HT-29 = tested on: HT-29
TK-10 = tested on: TK-10
ACHN = tested on: ACHN
HOP-92 = tested on: HOP-92
HOP-62 = tested on: HOP-62
A549 = tested on: A549
CCRF-CEM = tested on: CCRF-CEM
SNB-19 = tested on: SNB-19
SF-539 = tested on: SF-539
HCT-15 = tested on: HCT-15
HCC 2998 = tested on: HCC 2998

Measured: GI50

O=C(O)c1nnsc1COCc1ccccc1
> 100 µM: HCT-15
inactive: CAKI-1 > 100 µM | SF-268 > 100 µM | K562 > 100 µM | SF-295 > 100 µM | PC-3 > 100 µM | NCI-H23 > 100 µM | MDA-MB-435 > 100 µM | NCI/ADR-RES > 100 µM | SN12C > 100 µM | HT-29 > 100 µM | TK-10 > 100 µM | ACHN > 100 µM | HOP-92 > 100 µM | HOP-62 > 100 µM | A549 > 100 µM | CCRF-CEM > 100 µM | SNB-19 > 100 µM | SF-539 > 100 µM

NC(=O)c1nnsc1NC=O
> 100 µM: HCT-15
inactive: CAKI-1 > 100 µM | SF-268 > 100 µM | K562 > 100 µM | SF-295 > 100 µM | PC-3 > 100 µM | NCI-H23 > 100 µM | MDA-MB-435 > 100 µM | HCC 2998 > 100 µM | NCI/ADR-RES > 100 µM | SN12C > 100 µM | HT-29 > 100 µM | ACHN > 100 µM | HOP-92 75 µM | HOP-62 > 100 µM | A549 > 100 µM | CCRF-CEM > 100 µM | SNB-19 > 100 µM

CCOC(=O)N1CCC2(CC1)C[C@@](C(C)=O)(c1ccccc1)C(C)O2 (some centres not stated)
inactive: CAKI-1 > 100 µM | SF-268 > 100 µM | K562 > 100 µM | SF-295 > 100 µM | PC-3 > 100 µM | NCI-H23 > 100 µM | MDA-MB-435 > 100 µM | HCC 2998 > 100 µM | NCI/ADR-RES > 100 µM | HT-29 > 100 µM | TK-10 > 100 µM | ACHN > 100 µM | HOP-92 61.1 µM | HOP-62 > 100 µM | A549 51.3 µM | SNB-19 > 100 µM | SF-539 > 100 µM
> 100 µM: HCT-15

Cc1ccc(/N=C2N=C(Cl)/C(=C\c3ccco3)N\2)cc1
> 100 µM: HCT-15
inactive: CAKI-1 > 100 µM | SF-268 > 100 µM | K562 > 100 µM | SF-295 > 100 µM | PC-3 > 100 µM | NCI-H23 > 100 µM | MDA-MB-435 > 100 µM | NCI/ADR-RES > 100 µM | SN12C > 100 µM | HT-29 > 100 µM | TK-10 > 100 µM | ACHN > 100 µM | HOP-92 > 100 µM | HOP-62 > 100 µM | A549 > 100 µM | CCRF-CEM > 100 µM | SNB-19 > 100 µM | SF-539 > 100 µM

O=C(/C=C/c1ccc2ccccc2c1)NCc1ccc(C(=O)NCCc2ccccc2)cc1
> 100 µM: HCT-15
inactive: CAKI-1 > 100 µM | SF-268 > 100 µM | K562 52 µM | SF-295 > 100 µM | PC-3 > 100 µM | NCI-H23 > 100 µM | MDA-MB-435 > 100 µM | HCC 2998 > 100 µM | NCI/ADR-RES > 100 µM | SN12C > 100 µM | ACHN > 100 µM | HOP-92 > 100 µM | HOP-62 > 100 µM | A549 > 100 µM | CCRF-CEM > 100 µM | SNB-19 > 100 µM

O=C1C(Cl)C2(CC(/C=C/c3ccccc3O)=NN2c2cccc(S(=O)(=O)O)c2)N1c1nc2ccccc2s1 (configuration not stated)
inactive: SF-268 16 µM | K562 20.2 µM | PC-3 24.8 µM | NCI-H23 15.6 µM | MDA-MB-435 15.1 µM | HCC 2998 14.5 µM | NCI/ADR-RES 36.1 µM | SN12C 14.2 µM | HT-29 18.6 µM | TK-10 12.3 µM | ACHN 20.2 µM | HOP-92 19.7 µM | A549 23.7 µM | CCRF-CEM 7.24 µM | SNB-19 30.8 µM | SF-539 16.9 µM
18.2 µM: HCT-15

COc1ccc(C(=C2C(=O)OC(=O)C2=C(C)C)c2ccc(OC)cc2)cc1
51.9 µM: HCT-15
inactive: CAKI-1 > 100 µM | SF-268 > 100 µM | SF-295 73.5 µM | PC-3 60.4 µM | NCI-H23 > 100 µM | MDA-MB-435 > 100 µM | HCC 2998 > 100 µM | NCI/ADR-RES 39.5 µM | SN12C > 100 µM | HT-29 48 µM | TK-10 > 100 µM | ACHN > 100 µM | HOP-92 > 100 µM | HOP-62 45.8 µM | A549 67.6 µM | SNB-19 57.4 µM | SF-539 > 100 µM

OC1(C(F)(F)F)OCCN=C1C(F)(F)F (configuration not stated)
64.4 µM: HCT-15
inactive: CAKI-1 52.2 µM | SF-268 53.8 µM | K562 > 100 µM | SF-295 > 100 µM | PC-3 > 100 µM | NCI-H23 > 100 µM | MDA-MB-435 > 100 µM | HCC 2998 > 100 µM | NCI/ADR-RES 88.3 µM | SN12C 65.9 µM | HT-29 > 100 µM | TK-10 > 100 µM | ACHN > 100 µM | HOP-92 60.5 µM | HOP-62 > 100 µM | A549 > 100 µM | CCRF-CEM 46.8 µM | SNB-19 > 100 µM

COc1ccc(-c2nc(N(C)C)c3ccccc3n2)cc1
inactive: CAKI-1 14 µM | SF-268 15.9 µM | K562 13.9 µM | SF-295 14.2 µM | PC-3 24 µM | NCI-H23 16 µM | MDA-MB-435 15.3 µM | HCC 2998 6 µM | NCI/ADR-RES 5.09 µM | SN12C 7.89 µM | HT-29 5.51 µM | TK-10 18.3 µM | ACHN 7.64 µM | HOP-92 12.4 µM | HOP-62 16.6 µM | A549 6.1 µM | SNB-19 17.7 µM | SF-539 20.4 µM
12.1 µM: HCT-15

Oc1cccc(-c2cc(=S)ss2)c1
inactive: CAKI-1 18.2 µM | SF-268 16.9 µM | K562 8.57 µM | SF-295 14.3 µM | PC-3 14.4 µM | NCI-H23 8.79 µM | MDA-MB-435 20.5 µM | HCC 2998 17.7 µM | NCI/ADR-RES 17.5 µM | SN12C 20.2 µM | HT-29 24.7 µM | TK-10 18.5 µM | ACHN 15.7 µM | HOP-92 13.9 µM | HOP-62 17.6 µM | A549 18.5 µM | SNB-19 19.7 µM | SF-539 19.5 µM
15.1 µM: HCT-15

O=CN(O)CC(=O)O
> 100 µM: HCT-15
inactive: SF-268 > 100 µM | K562 > 100 µM | SF-295 > 100 µM | PC-3 > 100 µM | NCI-H23 > 100 µM | MDA-MB-435 > 100 µM | HCC 2998 > 100 µM | NCI/ADR-RES > 100 µM | SN12C > 100 µM | HT-29 > 100 µM | TK-10 > 100 µM | ACHN > 100 µM | HOP-92 > 100 µM | HOP-62 > 100 µM | A549 > 100 µM | CCRF-CEM > 100 µM | SNB-19 > 100 µM | SF-539 > 100 µM
